# Key:
# Assay type in all cases: cell-based, Human
# HaCaT cells [1] = assay: MTT assay, viability of UVB-exposed keratinocyte cells; settings: UVB 40 mJ/cm^2, incubation 24 h, compared with only UVB-exposed cells, FIG. 2A
# Procedure: (§1) Human keratinocyte (HaCaT, Korean Cell Line Bank, Seoul, Korea) cells were grown in Dulbecco's modified Eagle medium (DMEM, Gibco-BRL, Gaithersbrug, Md., USA) containing 10% fetal bovine serum (FBS), 2 mM glutamine and 100 μg/mL penicillin-streptomycin (Gibco-BRL, Gaithersbrug, Md., USA) at 37° C. humidified atmosphere of 5% CO2. Cells were sub-cultured to about 90-95% confluence by detaching with trypsin-EDTA solution.
# The viability levels of keratinocyte cells were determined by the ability of mitochondria to convert 3-(4,5-dimethylthiazol-2-yl)-2,5-diphenyl tetrazolium bromide (MTT) to insoluble formazan product. Briefly, cells were grown in 96-well plates at a density of 1×10^4 cells/well. After incubation for 24 h, the cells were stimulated by UVB irradiation (40 mJ/cm^2) and incubated for 24 h in the absence or presence of (2′S)-columbianetin at 37° C. under a humidified atmosphere of 5% CO2. The supernatant medium was removed and 100 μL of 1 mg/mL MTT reagent was added to each well, followed by incubation for 4 h. After removal of unconverted MTT, the amount of formazan in the cells was determined by adding DMSO (dimethyl sulfoxide) to wells and measuring optical density (OD) at 540 nm using a microplate reader (Tacan Austria GmbH, Salzburg, Austria). Relative cell viability was calculated as the percentage of viability of untreated cells that were considered the control. […]
# HaCaT cells [2] = assay: LDH release assay, cell injury of UVB-exposed cells; settings: UVB 40 mJ/cm^2, incubation 24 h, FIG. 2B
# Procedure: as §1
# Cell injury was measured by quantifying the amount of lactate dehydrogenase (LDH)-release using a commercial LDH cytotoxicity detection kit (TaKaRa Biomedicals, Tokyo, Japan). Cells were exposed according to the experiment design. The conditioned medium of the UVB-exposed cells was collected for LDH measurement. The substrate mix solution was added to aliquots of the supernatant medium at 1:1 ratio and incubated at 37° C. for 30 min under light protected conditions. Then, the absorbance was determined at 490 nm immediately after the addition of 1N HCl stop solution (final concentration, 0.2 N) using a microplate reader (Tacan Austria GmbH, Salzburg, Austria). Control was prepared with 0.1% (w/v) Triton X-100, which was defined as 100% LDH release.
# (§2) Based on the above results, effects of (2′S)-columbianetin on the viability and injury degree of UVB-exposed keratinocyte cells were examined at incubation for 24 h after UVB exposure of 40 mJ/cm^2.
# HaCaT cells [3] = assay: Microscopic image of morphological changes in UVB-exposed cells; settings: UVB 40 mJ/cm^2, microscopic image, FIG. 2C
# Procedure: as §1
# To determine the appropriate energy level of UVB irradiation, the cytotoxicity of keratinocytes cultured from the above was determined by comparing the data obtained from MTT and LDH leakage for 6, 12, 24 and 48 h after UVB irradiation from 10 to 3000 mJ/cm^2. Exposure of cells to UVB energy induced significant decrease of cell viability (FIG. 1A) and increase of LDH release in a UVB exposure-dependent manner (FIG. 1B). Morphological changes in keratinocyte cells for different incubation periods (6, 12, 24 and 48 h) after UVB exposure of cells in a range of 10-3000 mJ/cm^2 were compared (FIG. 1C). A larger proportion of cells were swelling and dying in a dose- and time-dependent manner.
# as §2
# intracellular ROS = assay: Intracellular ROS generation (DCFH-DA) in UVB-exposed cells; settings: UVB 40 mJ/cm^2, treated 24 h, FIG. 3
# Procedure: as §1
# The levels of intracellular ROS generation were detected using the oxidation sensitive dye 2′,7′-dichlorofluorescin diacetate (DCFH-DA). The cells were grown in a 96-well microplate with fluorescence for 24 h and followed by exposure to UVB (40 mJ/cm^2). The exposed cells were treated with (2′S)-columbianetin for 24 h and then they were loaded with 20 μM of DCFH-DA in PBS and incubated for 30 min in the dark at 37° C. under a humidified atmosphere with 5% CO2. Finally, cells were washed twice with PBS and the fluorescence of DCF in PBS was detected at an excitation wavelength of 485 nm and an emission wavelength of 535 nm using a fluorescence microplate reader (Tacan Austria GmbH, Salzburg, Austria) and the result is shown in FIG. 3.
# [4] = tested on: genomic DNA of keratinocyte cells; assay: Genomic DNA extraction and DNA oxidation, agarose gel; settings: UVB-stimulated cells, FIG. 4
# Procedure: as §1
# Genomic DNA was isolated from keratinocyte cells using standard phenol/proteinase K procedure with slight modifications (J. Sambrook, D. W. Russell, Molecular Cloning: A Laboratory Manual; 3rd ed. Cold Spring Harbor Laboratory Press: Cold Spring Harbor. 2001). In brief, UVB-stimulated cells in the presence and absence of sample were washed twice with PBS and collected using 1 mL of PBS containing 10 mM EDTA. After centrifugation at 13,400×g for 5 min at 4° C., the deposited cells were resuspended in 410 μL of solution including RNase A (0.5 mg/mL), proteinase K (10 mg/mL), SDS (10%) and NaOAC (0.2 M). After that, this mixture was incubated at 37° C. for 30 min and 55° C. for 1 h. Following incubation, phenol:chloroform:iso-amylalcohol (25:24:1) was added at 1:1 ratio, after which the mixture was centrifuged at 13,400×g for 5 min at 4° C. […] Purity of DNA was determined by ratio of absorbance at 260 and 280 nm using spectrophotometric assay. […]
# MMP-2 (gelatinase A) = assay: RT-PCR and Western blot, MMP-2 expression in UVB-exposed cells; settings: HaCaT, UVB 40 mJ/cm^2, RT-PCR and Western blot, FIG. 5
# Procedure: as §1
# (§3) Total cellular RNA was isolated using Trizol reagent (Invitrogen Co., CA, USA). The 2 μg of isolated RNA was reverse transcribed into cDNA using oligo-(dT) primer (Promega, Madison, Wis., USA). […] Finally, the relative band densities were determined using a LAS3000® Luminescent image analyzer (Fujifilm Life Science, Tokyo, Japan).
# (§4) Whole cells were lysed in RIPA buffer (Sigma-Aldrich Corp., St. Louis, USA) at 4° C. for 30 min. After centrifugation, total protein amount of cell lysates were determined using Lowry method (BioRad Laboratories, Hercules, Calif.). […] Bound antibodies were detected by horseradish peroxidase-conjugated secondary antibodies for 1 h at room temperature and the immunoreactive proteins were detected using a chemiluminescent ECL assay kit (Amersham Pharmacia Biosciences, England, UK) according to the manufacturer's instructions. […]
# MMP-9 (gelatinase B) = assay: RT-PCR and Western blot, MMP-9 expression in UVB-exposed cells; settings: HaCaT, UVB 40 mJ/cm^2, RT-PCR and Western blot, FIG. 5
# Procedure: as §1, §3, §4
# TIMP-1 = assay: RT-PCR and Western blot, TIMP-1 expression in UVB-exposed cells; settings: HaCaT, UVB 40 mJ/cm^2, FIG. 5
# Procedure: as §1, §3, §4
# TIMP-2 = assay: RT-PCR and Western blot, TIMP-2 expression in UVB-exposed cells; settings: HaCaT, UVB 40 mJ/cm^2, FIG. 5
# Procedure: as §1, §3, §4
# [5] = tested on: c-Jun N-terminal kinase (JNK); assay: Western blot, phosphorylated JNK in UVB-exposed cells; settings: UVB-exposed HaCaT cells, FIG. 6
# Procedure: as §1, §4
# p38 MAPK = assay: Western blot, phosphorylated p38 MAPK in UVB-exposed cells; settings: UVB-exposed HaCaT cells, FIG. 6
# Procedure: as §1, §4
# [6] = tested on: extracellular signal-related kinase (ERK1/2); assay: Western blot, phosphorylated ERK1/2 in UVB-exposed cells; settings: UVB-exposed HaCaT cells, FIG. 6
# Procedure: as §1, §4
# c-fos = assay: Western blot, AP-1 activation (c-fos) in UVB-exposed cells; settings: UVB-exposed HaCaT cells, FIG. 7A
# Procedure: as §1, §4
# p53 = assay: Western blot, phosphorylated p53 in UVB-exposed cells; settings: UVB-exposed HaCaT cells, FIG. 7B
# Procedure: as §1, §4
# Bax = assay: Western blot, Bax in UVB-exposed cells; settings: UVB-exposed HaCaT cells, FIG. 7B
# Procedure: as §1, §4
smiles,measurement,setting,value
CC(C)(O)C1Cc2c(ccc3ccc(=O)oc23)O1 (stereo not drawn) [(2′S)-columbianetin],cell viability (MTT),HaCaT cells [1],substantially increased cell viability in a dose-dependent manner
same,degree of cell injury (LDH release),HaCaT cells [2],substantially decreased the degree of cell injury by UVB exposure in a dose-dependent manner
same,morphological changes in cells due to UV,HaCaT cells [3],effectively suppressed the morphological changes in cells
same,DCF fluorescence intensity (intracellular ROS),intracellular ROS,significantly reduced DCF fluorescence intensity in a dose-dependent manner
same,protective effect on DNA damage due to UVB exposure,[4],adequate protective effect on DNA damage
same,expression level of UVB-mediated gelatinase A (MMP-2) gene and protein,MMP-2 (gelatinase A),reduced by (2′S)-columbianetin in a dose-dependent manner
same,expression level of UVB-mediated gelatinase B (MMP-9) gene and protein,MMP-9 (gelatinase B),reduced by (2′S)-columbianetin in a dose-dependent manner
same,TIMP-1 expression,TIMP-1,dose-dependently enhanced
same,TIMP-2 expression,TIMP-2,dose-dependently enhanced
same,expression of phosphorylated JNK protein,[5],effectively decreased the regulations
same,expression of phosphorylated p38 MAPK protein,p38 MAPK,effectively decreased the regulations
same,expression of phosphorylated ERK1/2 protein,[6],effectively decreased the regulations
same,activated nuclear transcription factor c-fos,c-fos,significantly down-regulated
same,expression level of phosphorylated p53,p53,the increments were suppressed
same,expression level of Bax protein,Bax,the increments were suppressed
